Test results from PubChem BioAssay AID2060903 (Molecular Pharmacology Branch, DTP, NCI, 2025).

Test system: 377384-186-R-J1-PDC complex spheroid viability
Experiment: Anticancer human tumor 377384-186-R-J1-PDC patient-derived pancreatic carcinoma cell line growth inhibition [RAS]
Conditions: for IC50: curve of first compound; for viability, T/C: stronger effect = lower value
Method in brief: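 Multi-cell-type spheroids: tumor cells plus HUVEC endothelial cells and mesenchymal stem cells. RAS-pathway inhibitors were combined with targeted agents, each dosed in half-log steps down from clinical Cmax, or from 10 microM when Cmax was unknown.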
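Note: spheroids exposed to compounds for seven days before readout.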

Compound `CC(=O)OC12COC1CC(O)C1(C)C(=O)C(O)C3=C(C)C(OC(=O)C(O)C(NC(=O)OC(C)(C)C)c4ccccc4)CC(O)(C(OC(=O)c4ccccc4)C21)C3(C)C` (configuration not stated) + C=CC(=O)N1CCN(c2nc(OCC3CCCN3C)nc3c(F)c(-c4nc(N)cc(C)c4C(F)(F)F)c(Cl)cc23)C(C)C1 has an IC50 (second compound 0.00316 µM) of less than 31.6 nM, an IC50 (second compound 0.01 µM) of less than 31.6 nM and an IC50 (second compound 0.0316 µM) of less than 31.6 nM. It also gave an IC50 (second compound 0.1 µM) of less than 31.6 nM, an IC50 (second compound 0.316 µM) of less than 31.6 nM and an IC50 (second compound 1 µM) of less than 31.6 nM. It also gave a viability, T/C (second compound 0.00316 µM, first compound 0.0316 µM) of 9.92%, a viability, T/C (second compound 0.00316 µM, first compound 0.1 µM) of 11.3% and a viability, T/C (second compound 0.00316 µM, first compound 0.316 µM) of 8.82%. For the same compound, the viability, T/C (second compound 0.00316 µM, first compound 1 µM) was 12.3%, the viability, T/C (second compound 0.00316 µM, first compound 3.16 µM) was 11.7% and the viability, T/C (second compound 0.00316 µM, first compound 10 µM) was 14.2%. The viability, T/C (second compound 0.01 µM, first compound 0.0316 µM) was 8.32%, the viability, T/C (second compound 0.01 µM, first compound 0.1 µM) was 8.59% and the viability, T/C (second compound 0.01 µM, first compound 0.316 µM) was 9.28%. It also gave a viability, T/C (second compound 0.01 µM, first compound 1 µM) of 10.8%, a viability, T/C (second compound 0.01 µM, first compound 3.16 µM) of 14.4% and a viability, T/C (second compound 0.01 µM, first compound 10 µM) of 11.4%. The viability, T/C (second compound 0.0316 µM, first compound 0.0316 µM) was 8.72%, the viability, T/C (second compound 0.0316 µM, first compound 0.1 µM) was 8.61% and the viability, T/C (second compound 0.0316 µM, first compound 0.316 µM) was 9.75%. The viability, T/C (second compound 0.0316 µM, first compound 1 µM) was 12.3%, the viability, T/C (second compound 0.0316 µM, first compound 3.16 µM) was 13.2% and the viability, T/C (second compound 0.0316 µM, first compound 10 µM) was 14%. The viability, T/C (second compound 0.1 µM, first compound 0.0316 µM) was 9.31%, the viability, T/C (second compound 0.1 µM, first compound 0.1 µM) was 9.36% and the viability, T/C (second compound 0.1 µM, first compound 0.316 µM) was 9.95%. For the same compound, the viability, T/C (second compound 0.1 µM, first compound 1 µM) was 12.9%, the viability, T/C (second compound 0.1 µM, first compound 3.16 µM) was 12.4% and the viability, T/C (second compound 0.1 µM, first compound 10 µM) was 9.63%. The viability, T/C (second compound 0.316 µM, first compound 0.0316 µM) was 9.62%, the viability, T/C (second compound 0.316 µM, first compound 0.1 µM) was 7.81% and the viability, T/C (second compound 0.316 µM, first compound 0.316 µM) was 8.61%. The viability, T/C (second compound 0.316 µM, first compound 1 µM) was 10.3%, the viability, T/C (second compound 0.316 µM, first compound 3.16 µM) was 13.6% and the viability, T/C (second compound 0.316 µM, first compound 10 µM) was 14.5%. The viability, T/C (second compound 1 µM, first compound 0.0316 µM) was 9.06%, the viability, T/C (second compound 1 µM, first compound 0.1 µM) was 11.8% and the viability, T/C (second compound 1 µM, first compound 0.316 µM) was 13.3%. For the same compound, the viability, T/C (second compound 1 µM, first compound 1 µM) was 12.9%, the viability, T/C (second compound 1 µM, first compound 3.16 µM) was 12.3% and the viability, T/C (second compound 1 µM, first compound 10 µM) was 14.5%.
